Entries after “also recorded” stand apart in the source; their conditions may differ. Where a SMILES comes first, the peptide text is derived from it. The star is where a group is joined. Cbz = O=C(OCc1ccccc1)*; CH2F = FC*
Experiments:
[1] = tested on: LPS-induced proteinuria; test: LPS-induced proteinuria in mice treated with inhibitors, albuminuria by gel quantification; format: in vivo, mouse; settings: FIG. 29A
Protocol: Proteinuria was induced in male B6 mice (n=5 per group) by LPS injection. The mice were injected the mice with 250 μg ultrapure LPS (InvivoGen) intraperitoneally (i.p.) and started treatment with 200 μg cathepsin L inhibitor VI (Calbiochem) 30 min after disease induction. The LPS and inhibitor injections were repeated at 24 h and the mice were sacrificed at 48 h.
To quantify the level of proteinuria, urine was diluted with double-distilled water, boiled the diluted urine in sample buffer and analyzed the samples by NuPAGE (Invitrogen) followed by Coomassie blue staining BSA standards (from 0.125 to 2.0 μg) were run on the same gel and were used to identify and quantify urinary albumin bands. The albumin bands were quantified with ImageJ software (NIH) and determined the creatinine abundance from the same urine samples with a commercial kit (Cayman Chemical) according to the manufacturer's protocol.

[2] = tested on: CatL-mediated degradation of synaptopodin; test: Western blot of isolated glomeruli, LPS-induced degradation of synaptopodin and RhoA; format: in vivo, mouse; settings: FIG. 29B
Excerpt: FIG. 29A: SDS-PAGE analysis of urines from control and LPS-injected mice (top). Quantitative analysis of albuminuria (bottom). FIG. 29B: Western blot analysis of isolated glomeruli showing that LPS causes the degradation of endogenous synaptopodin and RhoA.

[3] = tested on: cathepsin L; test: Generation of dynamin p40 fragment in LPS-treated cultured podocytes (Western blot); format: cell-based, mouse; settings: LPS-treated podocytes expressing dynWT
Excerpt: Next, it was examined whether cathepsin L could process dynamin in vivo, and whether this processing required GTP binding by dynamin. To this end, cultured podocytes were infected with adenoviruses expressing dynWT as well as different dynamin mutants. Infected podocytes were subsequently treated with LPS. LPS treatment increases cathepsin L presence and the activity in the cytosol (FIG. 3), and thus is expected to induce generation of the 40 kD proteolytic fragment. Respective cytosols were probed using the GTPase antibodies in order to detect N-terminal 40 kD proteolytic fragment. Expression of dynWT in podocytes treated with LPS identified proteolytic fragments that traveled with the same mobility as fragments observed in vitro. […] Furthermore, significant amount of p40 was present in cells expressing dynR725A prior to LPS treatment. […] Given complete protection of cathepsin L cleavage by GTPγS, it was reasoned that LPS treatment was somehow inducing dynR725A self-assembly, which in turn was protecting dynR725A from cathepsin L cleavage. This in turn would explain ability of dynR725A to counteract LPS and PAN treatment (FIG. 1D). […] Biochemical difference between dynWT, dynK694A and dynR725A is that only dynR725A is impaired in the rate of GTP-hydrolysis of assembled dynamin. This is important because GTP-hydrolysis drives disassemble of dynamin. Thus, while all three dynamins are predicted to self-assemble by LPS treatment, only dynR725A will stay assembled due to its inability to hydrolyze GTP. Once assembled dynWT and dynK694A hydrolyze GTP they will fall apart and thus become accessible for cathepsin L cleavage.
To explore CatL-mediated dynamin cleavage in vivo, cultured podocytes were infected with adenoviruses encoding different dynamin mutants and subsequently treated with LPS (FIG. 19G). […] To confirm the identity of the cleavage site, the ELSGGA (SEQ ID NO.29) sequence was mutated to EQSVGA (SEQ ID NO.31) (for simplicity, the mutant is subsequently referred to as dynL356Q). […] Finally, a GTPase-defective dynamin mutant was examined. Dynamin carrying a mutation in its […] (dynR725A) oligomerizes, but is impaired in assembly-stimulated GTP-hydrolysis. DynR725A is therefore predicted to live longer in the assembled state.
Podocytes were grown under non-permissive conditions to 70% confluence. Cells were washed twice with 1×PBS and infected with 1.2 ml of serum-free DMEM media containing 100 μl transactivator virus, 100 μl virus expressing dyn1 or dyn2. After 2 h of infection at 37° C., media containing virus was replaced with full DMEM. If cells were treated with LPS or PAN, 50 μg/ml of LPS or 50 μg/ml PAN was added at this point. 18-24 h post-infection, cells were detached using trypsin and processed either for subcellular fractionation or tested in the motility assays as described in (Reiser et al., J Biol Chem 279, 34827-34832 (2004)). When stated, 20 μM of Z-FF-FMK CatL specific inhibitor (Calbiochem, San Diego, Calif.) was added simultaneously with addition of LPS.

[4] = tested on: CatL; test: Cathepsin activity in LPS-treated podocytes with fluorogenic substrate CV-(FR)2; format: cell-based, mouse; settings: after LPS administration
Excerpt: (§1) Finally, it was examined whether CatL can be enzymatically active in the cytosol. Subcellular sites of CatL and CatB activity were visualized by a fluorogenic substrate, CV-(FR)2, which emits light upon cleavage by CatL. In untreated podocytes, protease activity was low and confined to perinuclear lysosomes (FIG. 17F).

[5] = target: T1, CatB (Mus musculus, UniProt P10605); test: Cathepsin activity in podocytes with fluorogenic substrate CV-(FR)2, CatB; format: cell-based
T1 construct: endogenous in cells; host or cells: cultured mouse podocytes
T1 sequence (P10605 80-333): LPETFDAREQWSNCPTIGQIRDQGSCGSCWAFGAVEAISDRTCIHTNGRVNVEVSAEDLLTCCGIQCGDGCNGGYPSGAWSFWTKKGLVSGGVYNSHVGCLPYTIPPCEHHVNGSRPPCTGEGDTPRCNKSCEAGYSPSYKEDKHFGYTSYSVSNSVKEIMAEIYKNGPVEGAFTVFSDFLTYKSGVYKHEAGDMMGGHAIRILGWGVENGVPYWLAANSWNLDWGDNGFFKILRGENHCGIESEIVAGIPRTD
Excerpt: as §1

Compound	LPS-induced proteinuria (albuminuria), in words [1]	LPS-induced degradation of synaptopodin and RhoA, in words [2]	dynamin cleavage / p40 generation with inhibitor, in words [3]	extralysosomal cathepsin activity, in words [4]	inhibition of CatB, in words [5]
CC(C)C[C@H](NC(=O)[C@H]1O[C@@H]1C(=O)O)C(=O)NCCCCN=C(N)N [E64]	ameliorate LPS-induced proteinuria	block the LPS-induced degradation of synaptopodin and RhoA	cleavage could be blocked		
O=C(NC(Cc1ccccc1)C(=O)NC(Cc1ccccc1)C(=O)CF)OCc1ccccc1 (stereo not drawn) [Z-FF-FMK, Z-Phe-Phe-fluoromethyl ketone, reference compound] (Cbz-Phe-Phe-CH2F; configuration not given here)			resulted specifically in the loss of p40; also recorded: inhibited	vast majority of extralysosomal cathepsin activity after LPS administration was sensitive	does not inhibit CatB
